Measurements published in paper PMC12595434, “Development of retinoid nuclear receptor pathway antagonists through targeting aldehyde dehydrogenase 1A3” (iScience, 2025).

Experiments:
ALDH1A3 = molecular target: T1, ALDH1A3 (Homo sapiens, UniProt P47895); assay: Cellular thermal shift assay (CETSA) in A375 cells; type: cell-based; set-up: endogenous in cells; host or cells: A375 cells; conditions: 100 nM, 1h at 37°C
T1 sequence (P47895 1-512): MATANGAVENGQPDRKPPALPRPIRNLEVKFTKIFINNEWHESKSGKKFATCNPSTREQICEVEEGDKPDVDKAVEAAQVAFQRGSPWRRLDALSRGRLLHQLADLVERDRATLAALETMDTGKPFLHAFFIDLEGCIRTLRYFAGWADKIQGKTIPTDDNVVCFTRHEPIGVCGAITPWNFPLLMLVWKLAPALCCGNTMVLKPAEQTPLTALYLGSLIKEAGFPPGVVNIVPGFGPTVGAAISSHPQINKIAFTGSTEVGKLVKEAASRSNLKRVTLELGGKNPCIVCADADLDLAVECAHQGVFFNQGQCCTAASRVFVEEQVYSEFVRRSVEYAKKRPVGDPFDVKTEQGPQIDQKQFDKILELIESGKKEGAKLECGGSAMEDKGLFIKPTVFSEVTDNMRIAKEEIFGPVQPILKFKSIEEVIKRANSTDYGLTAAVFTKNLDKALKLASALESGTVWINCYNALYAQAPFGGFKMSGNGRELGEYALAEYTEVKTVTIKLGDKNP
Description: CETSA was performed according to protocols described before.[85] Briefly, 6 × 10cm dishes of A375 cells were collected and treated with 100 nM MBE1 or 0.1% DMSO for 1h at 37°C. Afterward, cells were pelleted through centrifugation at 300g for 5 min. Cells were then washed with ice-cold PBS and resuspended in 800 μL of PBS. Cell suspension was aliquoted to 7xPCR tubes with 100 μL each and subjected to thermal denaturation at 46.3, 48.6, 52.2, 56.5, 60.1, 62.5, 64.0°C for 3 min. The resulting sample was snap frozen in liquid nitrogen followed by incubation at room temperature until fully thawed. This procedure was performed twice followed by brief vortexing and mixing to release soluble proteins from the cells. Samples were then transferred to 1.5 mL Eppendorf tubes and centrifuged at 20,000g for 20 min at 4°C, 90 μL of the resulting supernatant was collected into another new 1.5 mL Eppendorf tube and subjected to protein analysis by western blot (WB). NPTN (proteintech #28022-1-AP) and ALDH1A3 (abcam #ab129815) were used to detect target proteins while GelCode Blue Stain Reagent (Thermofisher scientific #24590) was used to stain for total proteins loaded in the WB analysis.

CCKa = CCKa (Homo sapiens, UniProt P32238); assay: Off-target profiling panel; type: binding; conditions: read-out: Inhibition by MBE1 at 10 μM (%)
ACHE = ACHE (Homo sapiens, UniProt P22303); assay: Off-target profiling panel; type: biochemical; conditions: read-out: Inhibition by MBE1 at 10 μM (%)
[1] = Serum concentration on MBE1.5-formulated diet; type: in vivo, mouse
Description: (§1) Finally, to establish a pharmacokinetic profile throughout dosing, MBE1.5 was analyzed in serum 12 h post dose on day 1 and day 7. […] To accommodate consistent plasma concentrations without accumulation, MBE1.5 was formulated to a lower concentration in mouse diet that would administer a dose equivalent to 25 mg/kg daily. This formulated diet was provided to mice for 5 days, at which point serum was analyzed for MBE1.5 concentration at 6:30 a.m. and 4:00 p.m. on day 5 to capture differences in mouse feeding cycles.
No statistical method was used to predetermine the number of animals needed across experiments. […]
(§2) proteome profiling in A375 cells was performed in DMSO and at two concentrations of MBE1 using a 10 temperature melting curve for isolation, followed by proteomic analysis, filtering and mapping peptide frequency as a composite melting curve, n=3 biological replicates per condition-temperature. […] ALDH1A3 or NPTN were assessed by WB to confirm the stabilization of ALDH1A3 but not NPTN (55kD, as indicated by arrow) by MBE1. […]
analysis of MBE1.5 following identification of proper formulations and administration to fasted male CD1 mice at 1 mg/kg intravenous (IV) and 10 mg/kg oral gavage (PO). n = 3 mice per arm. […] Upon acclimation, serum MBE1.5 concentrations were calculated following blood draws at 6:30 am and 4 pm. n = 5 mice per arm. […]

[2] = tested on: panel of cancer cell lines; assay: 48 h proliferation, WST-8 tetrazolium dye assay; type: cell-based, human; conditions: 48-h proliferation assays, 23 cell lines
[3] = 7-day repeat-dose study, oral gavage; type: in vivo, mouse; conditions: 50 mg/kg twice daily oral gavage
Description: In order to accommodate in vivo dosing and to also determine any potential toxic effects of MBE1.5, we performed a 7-day repeat-dose study administering a suspension of MBE1.5 at 50 mg/kg twice daily via oral gavage.
as §1
Figure S5. Specificity, tolerability and pharmacokinetic analysis of MBE1.5 in […]
MCF7 or SUM159 cells and a dose titration of MBE1.5 was performed against each cell line in the Aldelfuor assay to confirm ALDH1A3 isoform specificity for MBE1.5. n= 3 […]
as §2
analysis of MBE1.5 following identification of proper formulations and administration to fasted male CD1 mice at 1 mg/kg intravenous (IV) and 10 mg/kg oral gavage (PO). n = 3 mice per arm. G-I, MBE1.5 administered as a suspension to C57BL/6 male mice via bi-daily PO administration for seven days as compared to the vehicle was tracked for body weight (G), complete blood count at day 7 (H) and plasma concentrations of MBE1.5 were analyzed at 12 hours post Day 1 dosing and 12 hours following the last dose (I). n = 4 male mice per arm. […] Upon acclimation, serum MBE1.5 concentrations were calculated following blood draws at 6:30 am and 4 pm. n = 5 mice per arm. […]

Sequence of CCKa (P32238 whole entry): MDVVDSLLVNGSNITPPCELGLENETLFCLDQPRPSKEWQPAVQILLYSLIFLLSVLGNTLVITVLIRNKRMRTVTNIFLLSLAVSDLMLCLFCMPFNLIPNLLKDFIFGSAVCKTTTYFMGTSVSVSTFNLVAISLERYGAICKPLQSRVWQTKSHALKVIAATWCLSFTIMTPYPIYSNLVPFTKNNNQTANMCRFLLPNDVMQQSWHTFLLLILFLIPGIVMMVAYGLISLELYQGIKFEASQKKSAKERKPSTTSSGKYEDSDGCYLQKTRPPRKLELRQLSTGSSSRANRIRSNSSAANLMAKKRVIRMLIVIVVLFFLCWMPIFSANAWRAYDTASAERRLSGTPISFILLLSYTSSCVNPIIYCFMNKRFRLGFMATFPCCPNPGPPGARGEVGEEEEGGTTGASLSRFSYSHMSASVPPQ
Sequence of ACHE (P22303 32-614): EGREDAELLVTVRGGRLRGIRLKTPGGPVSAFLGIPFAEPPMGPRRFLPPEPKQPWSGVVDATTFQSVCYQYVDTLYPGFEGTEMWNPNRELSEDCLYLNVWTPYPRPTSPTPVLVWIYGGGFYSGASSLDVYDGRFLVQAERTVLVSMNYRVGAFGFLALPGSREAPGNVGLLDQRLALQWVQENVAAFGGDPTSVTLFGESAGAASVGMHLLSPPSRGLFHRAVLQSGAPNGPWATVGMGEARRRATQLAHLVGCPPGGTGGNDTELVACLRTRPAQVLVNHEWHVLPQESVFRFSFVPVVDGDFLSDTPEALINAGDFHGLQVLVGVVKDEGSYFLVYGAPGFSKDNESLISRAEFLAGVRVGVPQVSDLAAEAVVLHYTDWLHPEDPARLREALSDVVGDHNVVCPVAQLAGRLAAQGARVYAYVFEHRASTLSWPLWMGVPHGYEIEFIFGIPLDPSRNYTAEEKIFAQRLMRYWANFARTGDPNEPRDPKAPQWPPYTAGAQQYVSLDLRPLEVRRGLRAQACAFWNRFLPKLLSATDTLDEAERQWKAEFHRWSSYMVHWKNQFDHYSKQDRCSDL

Row | SMILES | stabilization of ALDH1A3 in CETSA (in words) (ALDH1A3) | inhibition at 10 µM (CCKa) | inhibition at 10 µM (ACHE) | concentration at 5 day ([1]; C57BL/6, mouse, serum, oral, 25 mg/kg daily, day 5, read-out: nadir serum concentration) | nadir serum concentration as multiple of IC50 in the retinoid assay ([1]; day 5) | effect on growth or survival (in words) [2] | serum level 12 h post dose, day 1 vs day 7 (in words) [3] | body weight vs vehicle (in words) ([3]; 7 days, C57BL/6 male mice) | blood profile (complete blood count) vs vehicle (in words) ([3]; day 7)
1 | CCc1cnccc1C(=O)Nc1cc2c(cc1F)NC(=O)CC2 [MBE1, 3-ethyl-N-(7-fluoro-2-oxo-3,4-dihydro-1H-quinolin-6-yl)pyridine-4-carboxamide] | increased stability and solubility at high temperatures | -1.45% | 5.81% | – | – | – | – | – | –
2 | CCc1ccccc1C(=O)Nc1cc2c(cc1F)NC(=O)CC2 [MBE1.5, 2-ethyl-N-(7-fluoro-2-oxo-3,4-dihydro-1H-quinolin-6-yl)benzamide] | – | – | – | ~270 nM | more than 100 fold | no detectable effect | accumulated | no difference | no detectable difference
